# Results as given in article PMC10830684, “Effect of Oregon grape root extracts on P-glycoprotein mediated transport in in vitro cell lines” (Journal of Pharmacy & Pharmaceutical Sciences, 2024).
# How the values were obtained:
# Caco-2 cells [1] = assay: MTT cytotoxicity assay in Caco-2 cells; format: cell-based, human; conditions: for MTT assay: 4 hours exposure
# Text: We initiated cytotoxicity experiments with the Caco-2, MDCKII-MDR1 and MDCKII-wild type cells on Day 7 (Caco-2) and Day 4 (MDCKII-MDR1 and MDCKII-wild type) after the initial plating of the cells at 2.5 × 10^3 cells/well in 48-well plates (Becton Dickinson, Franklin Lakes, NJ, USA). See details of preparation for the cytotoxicity experiments in Supplementary Material.
# We initiated cytotoxicity experiments with the Caco-2, MDCKII-MDR1 and MDCKII-wild type cells on Day 7 (Caco-2) and Day 4 (MDCKII-MDR1 and MDCKII-wild type) after the initial plating of the cells at 2.5x10^3 cells/well in 48-well plates (Becton Dickinson, Franklin Lakes, NJ, USA). Stock solutions of 10 mM berberine or berbamine were prepared by dissolving the compounds in DMSO (berberine) or distilled water (berbamine).
# The LDH enzymatic activities were assayed using the method of Mitchell et al.(1). […] Enzyme leakage into the medium was expressed as the percentage of total cellular LDH. The MTT (3-(4,5-dimethythiazole-2yl)-2,5-diphenyl tetrazolium bromide) reduction assay was done according to Mosmann (2). This assay was conducted immediately with the same cells used in the LDH study. The results were expressed as the percentage of negative controls.
# [2] = target: P-glycoprotein (MDCKII-MDR1 cells) (Homo sapiens, UniProt P08183); assay: Transepithelial transport of berberine and berbamine across MDCKII-MDR1 cells; format: in vitro ADME; set-up: expressed in transfected cells; host or cells: MDCKII-MDR1 (Madin-Darby canine kidney II cells overexpressing MDR1); conditions: 100 µM
# Procedure: Transport of ^3H-CsA and ^3H-digoxin (0.5 µM and 1.0 µCi), MDR1 substrates, were performed using transport buffer consisting of HBSS with 10 mM HEPES and 25 mM D-glucose at a pH of 6.8 for the apical (A) compartment and 7.4 for the basolateral (B) compartment. Experiments were performed at 37°C, 5% CO2, and 95% relative humidity. Cells in the Transwell® inserts were washed 3 times with a transport buffer and allowed to equilibrate for 30 min prior to the addition of test compounds. […] To evaluate the efflux mechanism involved with berberine and berbamine, 100 µM of berberine and berbamine were placed in the donor chamber and 100 µL samples were collected in the receiver chamber at 0, 0.5, 1.0, 1.5, 2.0, 2.5, and 3.0 h and analyzed by HPLC. Each experiment was performed in duplicate and repeated for each condition tested. For experiments performed in “non-sink” conditions, 100 µL aliquots were taken from the donor and receiver chambers at the beginning and from the receiver chamber at 0.5, 1.0, 1.5, 2.0, 2.5, and 3.0 h. An equal volume of 100 µL was replaced in the chamber at each sample time point. […] A 100 µL sample was taken from the donor chamber at 3 h in order to calculate the mass balance of radioactivity to determine if adsorption to the cell culture transport apparatus had occurred. Each sample was placed in 0.9 mL of scintillation fluor (Cytoscint ES, ICN, Cosa Mesa, CA, USA) and read on a Beckman LS 6500 (Palo Alto, CA, USA) scintillation counter for ^3H activity. […]
# (§1) The apparent permeability (Papp) was calculated using the following equation [40]: Papp=dQ/dt×1/A×C0
# Where A is the surface area of the monolayer (4.71 cm^2) and C0 is the initial concentration of radiolabeled probe substrate in the donor compartment. dQ/dt is the slope of the steady-state rate constant. The efflux ratio was determined by dividing the Papp in the B to A direction by the Papp in the A to B direction: Efflux ratio=PappB to A/PappA to B […]
# Caco-2 cells [3] = assay: Transepithelial transport of berberine and berbamine across Caco-2 cells; format: in vitro ADME, human; conditions: 100 µM; Caco-2 cells
# Procedure: Transport of ^3H-CsA and ^3H-digoxin (0.5 µM and 1.0 µCi), MDR1 substrates, were performed using transport buffer consisting of HBSS with 10 mM HEPES and 25 mM D-glucose at a pH of 6.8 for the apical (A) compartment and 7.4 for the basolateral (B) compartment. Experiments were performed at 37°C, 5% CO2, and 95% relative humidity. Cells in the Transwell® inserts were washed 3 times with a transport buffer and allowed to equilibrate for 30 min prior to the addition of test compounds. […] To evaluate the efflux mechanism involved with berberine and berbamine, 100 µM of berberine and berbamine were placed in the donor chamber and 100 µL samples were collected in the receiver chamber at 0, 0.5, 1.0, 1.5, 2.0, 2.5, and 3.0 h and analyzed by HPLC. Each experiment was performed in duplicate and repeated for each condition tested. For experiments performed in “non-sink” conditions, 100 µL aliquots were taken from the donor and receiver chambers at the beginning and from the receiver chamber at 0.5, 1.0, 1.5, 2.0, 2.5, and 3.0 h. An equal volume of 100 µL was replaced in the chamber at each sample time point. “Non-sink” conditions were performed when less than 10% of compound is transported across cells during the transport experiment such that a concentration gradient was always present. For the “sink” condition experiments, the entire receiver volume was replaced at each time interval and a 100 µL aliquot was taken from the receiver volume for scintillation counting. A 100 µL sample was taken from the donor chamber at 3 h in order to calculate the mass balance of radioactivity to determine if adsorption to the cell culture transport apparatus had occurred. Each sample was placed in 0.9 mL of scintillation fluor (Cytoscint ES, ICN, Cosa Mesa, CA, USA) and read on a Beckman LS 6500 (Palo Alto, CA, USA) scintillation counter for ^3H activity. For berberine and berbamine analysis, 100 µL aliquot was assayed by HPLC.
# as §1
# Where A is the surface area of the monolayer (4.71 cm^2) and C0 is the initial concentration of radiolabeled probe substrate in the donor compartment. dQ/dt is the slope of the steady-state rate constant. The efflux ratio was determined by dividing the Papp in the B to A direction by the Papp in the A to B direction: Efflux ratio=PappB to A/PappA to B
# A Waters 2690 separations module with a Model 996 photodiode array detector with the Millennium 32 Chromatograph Manager version 3.0 software (Waters Corporation, Milford, MA, USA) was used for HPLC analysis. […] All the standards and samples were filtered (0.2 µm) prior to injection. Ten µL was injected onto a 250 × 4.6 mm i.d., […], Zorbax Eclipse X DB-C18 Column (Agilent Technologies, Palo Alto, CA, USA) with a 3.9 × 20 mm i.d. Symmetry® C18 guard column, with an isocratic mobile phase of 32:68 acetonitrile:buffer. The buffer consisted of 30 mM ammonium acetate and 14 mM TEA and was adjusted to pH 4.85 with acetic acid. A flow rate of 1 mL/min and UV absorption at 254 nm was used for analysis. The retention time of berberine and berbamine was 7.84 min and 3.03 min, respectively. The cumulative amount of transport was determined using the corresponding peak area for berberine or berbamine. The cumulative amount of berberine or berbamine transported across the cell membrane was evaluated as a functionof time. The Papp was calculated by the following equation: […]
# P-gp = system: P-gp; set-up: method as in PMID 12434406; conditions: Caco-2 cells; seven day pretreatment; 30 µM; cited from earlier work
# Chain of P-glycoprotein (MDCKII-MDR1 cells) (P08183 whole entry): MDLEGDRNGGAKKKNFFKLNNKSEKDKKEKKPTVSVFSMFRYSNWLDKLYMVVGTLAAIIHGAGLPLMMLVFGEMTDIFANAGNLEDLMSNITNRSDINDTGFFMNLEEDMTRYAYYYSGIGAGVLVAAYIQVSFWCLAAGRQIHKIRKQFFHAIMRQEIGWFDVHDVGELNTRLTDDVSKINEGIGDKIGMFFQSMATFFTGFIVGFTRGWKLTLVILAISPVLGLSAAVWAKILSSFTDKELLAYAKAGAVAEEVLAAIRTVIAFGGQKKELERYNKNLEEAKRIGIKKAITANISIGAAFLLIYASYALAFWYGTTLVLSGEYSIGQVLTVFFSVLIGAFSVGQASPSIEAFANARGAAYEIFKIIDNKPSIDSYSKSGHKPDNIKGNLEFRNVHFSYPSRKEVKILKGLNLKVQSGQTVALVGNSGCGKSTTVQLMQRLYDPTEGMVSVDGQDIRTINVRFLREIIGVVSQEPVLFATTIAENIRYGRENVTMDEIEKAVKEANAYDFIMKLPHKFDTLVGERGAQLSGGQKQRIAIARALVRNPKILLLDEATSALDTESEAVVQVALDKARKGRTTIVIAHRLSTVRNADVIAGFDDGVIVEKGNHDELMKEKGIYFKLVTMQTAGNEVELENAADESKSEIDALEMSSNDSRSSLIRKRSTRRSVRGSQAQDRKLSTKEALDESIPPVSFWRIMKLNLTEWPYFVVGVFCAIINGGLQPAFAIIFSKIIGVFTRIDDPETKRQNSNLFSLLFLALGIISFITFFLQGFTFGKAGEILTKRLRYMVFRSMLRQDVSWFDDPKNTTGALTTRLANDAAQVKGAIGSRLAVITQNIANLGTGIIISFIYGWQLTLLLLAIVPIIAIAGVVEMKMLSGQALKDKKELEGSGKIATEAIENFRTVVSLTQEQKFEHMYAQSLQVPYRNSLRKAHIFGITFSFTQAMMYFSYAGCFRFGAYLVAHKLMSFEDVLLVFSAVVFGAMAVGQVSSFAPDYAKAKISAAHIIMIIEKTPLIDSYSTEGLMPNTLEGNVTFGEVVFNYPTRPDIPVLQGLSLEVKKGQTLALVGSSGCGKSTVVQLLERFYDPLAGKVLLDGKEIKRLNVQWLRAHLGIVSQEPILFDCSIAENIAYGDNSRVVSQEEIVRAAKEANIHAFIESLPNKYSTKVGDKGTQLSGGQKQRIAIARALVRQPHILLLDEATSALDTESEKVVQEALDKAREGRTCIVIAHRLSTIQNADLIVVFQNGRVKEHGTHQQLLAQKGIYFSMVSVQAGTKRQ
smiles,measurement,setting,value
"COc1ccc2cc3[n+](cc2c1OC)CCc1cc2c(cc1-3)OCO2.[Cl-] [Berberine, Berberine chloride]",MTT assay,Caco-2 cells [1]; 0.03 µM,□ (%MTT reduction is not significantly decreased compared with the negative control)
same,MTT assay,Caco-2 cells [1]; 3.0 µM,□ (%MTT reduction is not significantly decreased compared with the negative control)
same,MTT assay,Caco-2 cells [1]; 100 µM,□ (%MTT reduction is not significantly decreased compared with the negative control)
same,MTT assay,Caco-2 cells [1]; 150 µM,76.37 ± 2.13%
same,earliest time of significant increase in LDH leakage and decrease in MTT reduction,"Caco-2 cells [1]; 150 µM, time-response 2, 4, 6, 8 hr, data not shown",4 h
same,MTT assay,Caco-2 cells [1]; 300 µM,58.25 ± 6.37%
same,MTT assay,"Caco-2 cells [1]; 300 µM, listed as berberine",58.25 ± 9.24%
same,Papp A to B direction,[2],1.3 ×10⁻⁶ cm/s
same,Papp B to A direction,[2],15.6 ×10⁻⁶ cm/s
same,fold increase of Papp B to A compared with A to B,[2],approximately 12 fold
same,Papp A to B direction,Caco-2 cells [3],2.35 ×10⁻⁶ cm/s
same,Papp B to A direction,Caco-2 cells [3],10.4 ×10⁻⁶ cm/s
same,fold increase of Papp B to A compared with A to B,Caco-2 cells [3],~4 fold
same,transport in the A to B direction,Caco-2 cells [3],0.18 nmol/min
same,transport in the B to A direction,Caco-2 cells [3],1.45 nmol/min
same,increase of the efflux of daunomycin,P-gp,1.4 fold
